Laboratory results taken from ChEMBL document CHEMBL1138698, “Ketoamide-based inhibitors of cysteine protease, cathepsin K: P3 modifications” (J Med Chem, 2004).

What was measured:
[1] = target: T1, Cathepsin K (Homo sapiens, UniProt P43235); experiment: Inhibitory potency against human Cathepsin K
T1 sequence (P43235 whole entry): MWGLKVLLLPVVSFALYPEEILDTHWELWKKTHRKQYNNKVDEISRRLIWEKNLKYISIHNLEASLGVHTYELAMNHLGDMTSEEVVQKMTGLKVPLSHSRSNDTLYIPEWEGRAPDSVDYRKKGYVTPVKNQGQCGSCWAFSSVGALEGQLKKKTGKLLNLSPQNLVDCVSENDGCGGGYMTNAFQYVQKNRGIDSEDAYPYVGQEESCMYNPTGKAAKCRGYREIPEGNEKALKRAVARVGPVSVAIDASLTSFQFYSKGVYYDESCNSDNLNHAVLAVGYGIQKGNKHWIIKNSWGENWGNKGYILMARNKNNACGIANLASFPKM

[2] = target: Cathepsin (B and K) (Homo sapiens) (UniProt P43235+P07858); experiment: Selectivity for human Cathepsins B and K; format: protein assay
[3] = target: Cathepsin (H and K) (Homo sapiens) (UniProt P09668+P43235); experiment: Selectivity for human Cathepsins H and K; format: protein assay
[4] = target: Cathepsin (L and K) (Homo sapiens) (UniProt P43235+P07711); experiment: Selectivity for human Cathepsins L and K; format: protein assay
[5] = target: Cathepsin (V and K) (Homo sapiens) (UniProt P43235+O60911); experiment: Selectivity for human Cathepsins V and K; format: protein assay
[6] = target: Cathepsin (S and K) (Homo sapiens) (UniProt P25774+P43235); experiment: Selectivity for human Cathepsins S and K; format: protein assay
Cathepsin (S and K) (Homo sapiens), sequence (P25774 whole entry, looked up, one chain of several): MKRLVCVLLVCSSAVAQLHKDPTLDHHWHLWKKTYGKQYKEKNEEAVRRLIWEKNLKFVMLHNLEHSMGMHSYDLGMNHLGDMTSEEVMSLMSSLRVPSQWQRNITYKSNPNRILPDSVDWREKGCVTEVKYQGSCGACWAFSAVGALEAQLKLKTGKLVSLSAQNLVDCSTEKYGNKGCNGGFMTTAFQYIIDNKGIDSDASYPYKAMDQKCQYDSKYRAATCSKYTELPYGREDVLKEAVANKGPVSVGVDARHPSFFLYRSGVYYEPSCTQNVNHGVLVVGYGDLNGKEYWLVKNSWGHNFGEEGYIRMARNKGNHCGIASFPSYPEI

Cathepsin (L and K) (Homo sapiens), sequence (P07711 whole entry, looked up, one chain of several): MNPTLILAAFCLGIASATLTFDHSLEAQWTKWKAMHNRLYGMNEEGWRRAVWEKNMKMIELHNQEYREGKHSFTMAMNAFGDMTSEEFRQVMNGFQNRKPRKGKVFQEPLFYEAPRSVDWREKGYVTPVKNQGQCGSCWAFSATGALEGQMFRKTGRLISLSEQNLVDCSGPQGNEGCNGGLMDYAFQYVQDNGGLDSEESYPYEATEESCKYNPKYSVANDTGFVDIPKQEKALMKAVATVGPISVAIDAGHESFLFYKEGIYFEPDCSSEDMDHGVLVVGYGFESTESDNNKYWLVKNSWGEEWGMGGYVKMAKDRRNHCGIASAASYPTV
Cathepsin (H and K) (Homo sapiens), sequence (P09668 whole entry, looked up, one chain of several): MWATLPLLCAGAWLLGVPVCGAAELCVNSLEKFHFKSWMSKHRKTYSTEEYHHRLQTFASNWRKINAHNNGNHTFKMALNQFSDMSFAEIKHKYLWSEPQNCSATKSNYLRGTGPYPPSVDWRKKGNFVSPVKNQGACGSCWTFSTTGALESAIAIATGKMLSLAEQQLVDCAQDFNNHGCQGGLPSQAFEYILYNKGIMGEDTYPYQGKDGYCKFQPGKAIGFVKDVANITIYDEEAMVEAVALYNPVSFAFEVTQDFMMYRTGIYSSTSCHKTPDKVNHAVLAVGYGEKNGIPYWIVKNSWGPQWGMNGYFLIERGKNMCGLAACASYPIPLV
Cathepsin (V and K) (Homo sapiens), sequence (O60911 whole entry, looked up, one chain of several): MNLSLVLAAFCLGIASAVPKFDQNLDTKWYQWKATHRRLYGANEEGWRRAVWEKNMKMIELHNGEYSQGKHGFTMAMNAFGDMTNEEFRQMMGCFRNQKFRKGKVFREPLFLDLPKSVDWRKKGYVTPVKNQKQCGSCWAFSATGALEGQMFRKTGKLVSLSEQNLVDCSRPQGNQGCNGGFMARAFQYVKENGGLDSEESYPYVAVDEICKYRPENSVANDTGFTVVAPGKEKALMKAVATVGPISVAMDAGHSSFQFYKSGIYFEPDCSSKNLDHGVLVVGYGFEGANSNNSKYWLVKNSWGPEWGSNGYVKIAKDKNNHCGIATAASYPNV

Row | SMILES | IC50 [1] | further results
1 | CCCC[C@H](NC(=O)OCC1(CCCSc2nccn2C)CCC1)C(=O)C(=O)N[C@H](C)c1ccccc1 | 1900 nM | –
2 | CCCC[C@H](NC(=O)OCC1(COc2nc(-c3ccccc3)ns2)CCC1)C(=O)C(=O)N[C@H](C)c1ccccc1 | 50 nM | –
3 | CCCC[C@H](NC(=O)OCC1(CSc2ncc(-c3ccc(Cl)cc3)n2C)CCC1)C(=O)C(=O)N[C@H](C)c1ccccc1 | 230 nM | –
4 | CCCC[C@H](NC(=O)OCC1(COc2ccnc(N3CCN(c4ccccc4)CC3)n2)CCC1)C(=O)C(=O)N[C@H](C)c1ccccc1 | 31 nM | –
5 | CCCC[C@H](NC(=O)OCC1(CSc2nccn2-c2ccccc2)CCC1)C(=O)C(=O)N[C@H](C)c1ccccc1 | 87 nM | –
6 | CCCC[C@H](NC(=O)OCC1(Cc2nc(-c3ccccc3)cs2)CCC1)C(=O)C(=O)N[C@H](C)c1ccccc1 | 5.5 nM | Selectivity [2]: 660; Selectivity [3]: > 230; Selectivity [4]: 220; Selectivity [5]: 20; Selectivity [6]: 22
7 | CCCC[C@H](NC(=O)OCC1(COc2nc(-c3ccc(C)cc3)cs2)CCC1)C(=O)C(=O)N[C@H](C)c1ccccc1 | 150 nM | –
8 | CCCC[C@H](NC(=O)OCC1(CSc2nccn2C)CCC1)C(=O)C(=O)N[C@H](C)c1ccccc1 | 61 nM | –
9 | CCCC[C@H](NC(=O)OCC1(COc2ccnc(Cl)n2)CCC1)C(=O)C(=O)N[C@H](C)c1ccccc1 | 85 nM | –
10 | CCCC[C@H](NC(=O)OCC1(COc2ncccn2)CCC1)C(=O)C(=O)N[C@H](C)c1ccccc1 | 260 nM | –
11 | CCCC[C@H](NC(=O)OCC1(COc2ccnc(N3CCN(C)CC3)n2)CCC1)C(=O)C(=O)N[C@H](C)c1ccccc1 | 54 nM | –

Further lines, with some results ahead:

Row | IC50 [1] | SMILES | further results
12 | 11 nM | CCCC[C@H](NC(=O)OCC1(CSc2ncccn2)CCC1)C(=O)C(=O)N[C@H](C)c1ccccc1 | –
13 | 17 nM | CCCC[C@H](NC(=O)OCC1(CSc2nccs2)CCC1)C(=O)C(=O)N[C@H](C)c1ccccc1 | Selectivity [2]: 390; Selectivity [3]: > 720; Selectivity [4]: 250; Selectivity [5]: 41; Selectivity [6]: 4
14 | > 12000 nM | CCCC[C@H](NC(=O)OCC1(CCCOc2ccnc(Cl)n2)CCC1)C(=O)C(=O)N[C@H](C)c1ccccc1 | –
15 | 98 nM | CCCC[C@H](NC(=O)OCC1(COc2ncnc3ccsc23)CCC1)C(=O)C(=O)N[C@H](C)c1ccccc1 | –
16 | > 12000 nM | CCCC[C@H](NC(=O)OCC1(CCSc2nccn2C)CCC1)C(=O)C(=O)N[C@H](C)c1ccccc1 | –
17 | 37 nM | CCCC[C@H](NC(=O)OCC1(COc2nccs2)CCC1)C(=O)C(=O)N[C@H](C)c1ccccc1 | –
18 | 9.5 nM | CCCC[C@H](NC(=O)OCC1(CSc2nccc(-c3ccc(Cl)cc3)n2)CCC1)C(=O)C(=O)N[C@H](C)c1ccccc1 | –
19 | 57 nM | CCCC[C@H](NC(=O)OCC1(COc2nnc(C)cc2-c2ccccc2)CCC1)C(=O)C(=O)N[C@H](C)c1ccccc1 | –
20 | 51 nM | CCCC[C@H](NC(=O)OCC1(CSc2nc3ccccc3o2)CCC1)C(=O)C(=O)N[C@H](C)c1ccccc1 | –
21 | 54 nM | CCCC[C@H](NC(=O)OCC1(COc2ccnc(N3CCOCC3)n2)CCC1)C(=O)C(=O)N[C@H](C)c1ccccc1 | –
